Laboratory results published in US6469042B1, “Fluoro oxindole derivatives as modulators if KCNQ potassium channels” (Bristol-Myers Squibb Company, priority 2001, dated 2002).
Marks after values point to notes of the source that are not given here.

Key:
[1] = target: T1, cloned mouse KCNQ2 (mKCNQ2) (Mus musculus, UniProt Q9Z351); assay: KCNQ oocyte two-electrode voltage clamp, KCNQ2-mediated outward current; format: cell-based; conditions: expressed as percent increase over KCNQ current in controls, Xenopus oocytes
T1 construct: expressed in transfected cells; host or cells: Xenopus oocytes injected with mKCNQ2 cRNA
Experimental: The ability of compounds described in the present invention to open KCNQ channels and increase whole-cell outward (K^+) KCNQ-mediated currents was assessed under voltage-clamp conditions by determining their ability to increase cloned mouse KCNQ2 (mKCNQ2)-mediated, heteromultimeric KCNQ2/3 (mμKCNQ2/3)-mediated, and human KCNQ5 (hKCNQ5)-mediated outward currents heterologously expressed in Xenopus oocytes. Oocytes were prepared and injected using standard techniques; each oocyte was injected with approximately 50 nl of mKCNQ2, or hKCNQ5 cRNA. In the case of mKCNQ2/3 heteromultimeric channel expression, equal amounts (25-50 nL) of ech cRNA were co-injected. […] Following injection, oocytes were maintained at 17° in ND96 medium consisting of (in mM): NaCl, 90; KCl, 1.0; CaCl2, 1:0; MgCl2, 1:0; HEPES, 5.0; pH 7.5. Horse serum (5%) and penicillin/streptomyin (5%) were added to the incubation medium. Recording commenced 2-6 days following mRNA injection. Prior to the start of an experiment oocytes were placed in a recording chamber and incubated in Modified Barth's Solution (MBS) consisting of (in mM): NaCl, 88; NaHCO3, 2.4; KCl, 1.0; HEPES, 10; MgSO4, 0.82; Ca(NO3)2, 0.33; CaCl2, 0.41; pH 7.5.
Oocytes were impaled with electrodes (1-2 MΩ) and standard 2-electrode voltage clamp techniques were employed to record whole-cell membrane currents. Recordings were accomplished using standard two-electrode voltage clamp techniques [Stuhmer, W., et al., Methods in Enzymolgy, Vol. 207: 319-339 (1992)]. Voltage-clamp protocols typically consisted of a series of voltage steps 1-5 sec duration, in +10 mV steps from a holding potential of −90 mV to a maximal potential of +40 mV; records were digitized at 5 kHz and stored on a computer using pClamp data acquisition and analysis software (Axon Instruments). Compounds were evaluated at a single concentration (10 or 20 μM); the effect of the selected compounds of Formula I on KCNQ2 current was expressed as the percent of control current and is listed in Table I.

[2] = system: SSS-stimulated trigeminal field response in trigeminal nucleus caudalis; assay: In vivo electrophysiology: superior sagital sinus (SSS)-stimulated trigeminal field response (migraine model); set-up: species or system rat
Description: Male Long-Evans rats (Harlan, 250-400 g) were used in the experiments described in this example. Prior to testing, rats were allowed access to food and water ad libitum and were maintained on a 12:12-h light/dark cycle. Rats were group housed in an Association for Assessment and Accreditation of Laboratory Animal Care (AAALAC) accredited facility and cared for in strict compliance with all applicable regulations.
Rats were anesthetized with 1.2 g/kg i.p. urethane (#U-2500, Sigma Chemical Company, St. Louis, Mo.) and given supplemental urethane as needed. In the case of intravenous (i.v.) drug administration, the jugular veins of the rats were cannulated using sylastic tubing pre-filled with vehicle.
Rats were placed in a stereotaxic device (#1730, David Kopf Instruments, Tujunga, Calif.) and an incision was made to expose the entire skull that continued caudally to the level of the C1/C2 vertebral juncture. Using a microdrill (#770, Dremel, Racine, Wis.) and #4 carbide burr (Henry Schein, Melville, N.Y.), a square section of skull was removed extending from the bregma position, rostrally, to the lambda position, caudally. […]
Stimulated field responses were recorded in the trigeminal nucleus caudalis using Teflon coated stainless-steel microelectrodes (5 megaohms impedance, Frederick Haer, Brunswick, Me.) and amplified and filtered (0.1 Hz-10 kHz) using a differential amplifier (#IsoDAM8, World Precision Instruments, Sarasota, Fla.). […]
Three baseline measures (i.e., 100% of control), each consisting of 100 evoked trigeminal field potentials, were sampled prior to drug injection. […] Following injection of test substances, data were sampled for 1 hour, averaged into 5 minute bins (90 evoked potentials) and expressed as a percent change from average baseline values for the purposes of statistical analysis. Data were analyzed using repeated measures analyses of variance comparing vehicle and drug effects. […]

T1 sequence (Q9Z351 whole entry): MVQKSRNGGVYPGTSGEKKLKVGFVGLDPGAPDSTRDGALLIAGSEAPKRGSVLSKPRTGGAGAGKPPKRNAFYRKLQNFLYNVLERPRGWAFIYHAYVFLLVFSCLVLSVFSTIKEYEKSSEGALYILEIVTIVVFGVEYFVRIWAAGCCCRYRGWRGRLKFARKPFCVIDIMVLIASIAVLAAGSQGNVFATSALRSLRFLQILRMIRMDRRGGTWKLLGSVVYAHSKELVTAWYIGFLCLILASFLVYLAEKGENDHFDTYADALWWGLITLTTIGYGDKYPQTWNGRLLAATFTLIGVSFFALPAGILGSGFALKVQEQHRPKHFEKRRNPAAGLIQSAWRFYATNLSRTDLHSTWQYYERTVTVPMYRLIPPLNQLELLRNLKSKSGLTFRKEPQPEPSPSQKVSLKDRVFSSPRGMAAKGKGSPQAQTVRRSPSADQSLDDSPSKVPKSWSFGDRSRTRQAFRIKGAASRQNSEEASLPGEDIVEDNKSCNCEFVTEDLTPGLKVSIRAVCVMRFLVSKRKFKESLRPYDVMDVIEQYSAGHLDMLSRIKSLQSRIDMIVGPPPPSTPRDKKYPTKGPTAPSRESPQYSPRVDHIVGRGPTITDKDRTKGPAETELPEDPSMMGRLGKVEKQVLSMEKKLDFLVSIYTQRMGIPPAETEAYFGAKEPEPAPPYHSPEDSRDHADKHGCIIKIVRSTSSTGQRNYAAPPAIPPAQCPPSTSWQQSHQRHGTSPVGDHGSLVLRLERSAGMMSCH

Molecule | melting point [°C] | KCNQ2 Current ([1]; at 20 μM) | further results
O=C1Nc2cc(F)ccc2C1(F)c1cc(Cl)ccc1OCC(F)(F)F (racemic) [Example 6, (±)-3-[5-Chloro-2-(2,2,2-trifluoroethoxy)phenyl]-1,3-dihydro-3,6-difluoro-2H-indol-2-one] | 200 to 202 |  | 
O=C1Nc2cc(C(F)(F)F)ccc2C1(F)c1cc(Cl)ccc1OCC(F)(F)F (racemic) [Example 1, (±)-3-[5-Chloro-2-[(2,2,2-trifluoroethoxy)phenyl]-1,3-dihydro-3-fluoro-6-(trifluoromethyl)-2H-indol-2-one] |  |  | KCNQ2 Current ([1]; at 10 μM): ++** (++ = >150%)
O=C1Nc2cc(Cl)ccc2C1(F)c1cc(Cl)ccc1OCC(F)(F)F (racemic) [Example 11, (±)-6-Chloro-3-[5-chloro-2-(2,2,2-trifluoroethoxy)phenyl]-1,3-dihydro-3-fluoro-2H-indol-2-one] | 167 to 169 | ++ (++ = >150%) | 
(±)-3-[5-Chloro-2-(2,2,2-trifluoroethoxy)phenyl]-5,6-dichloro-1,3-dihydro-3-fluoro-2H-indol-2-one [Example 9] |  | + (+ = 120-150%) | 
O=C1Nc2cc(-c3ccc(C(F)(F)F)cc3)ccc2C1(F)c1cc(Cl)ccc1OCC(F)(F)F (racemic) [Example 23, (±)-3-[5-Chloro-2-(2,2,2-trifluoroethoxy)phenyl]-1,3-dihydro-3-fluoro-6-[4-(trifluoromethyl)phenyl]-2H-indol-2-one] | 103 to 105 |  | 
CCSc1ccc(Cl)cc1C1(F)C(=O)Nc2cc(C(F)(F)F)ccc21 (stereo not shown) [Example 17, 3-[5-Chloro-2-(ethylthio)phenyl]-1,3-dihydro-3-fluoro-6-(trifluoromethyl)-2H-indol-2-one] | 105 to 107 |  | 
O=C1Nc2cc(Cl)ccc2C1(F)c1cc(Cl)ccc1OCC(F)(F)F (single isomer, unassigned; (+)) [Example 12, (+)-6-Chloro-3-[5-chloro-2-(2,2,2-trifluoroethox)phenyl]-1,3-dihydro-3-fluoro-2H-indol-2-one] |  | ++ (++ = >150%) | 
O=C1Nc2cc(F)c(F)cc2C1(F)c1cc(Cl)ccc1OCC(F)(F)F (racemic) [Example 10, (±)-3-[5-Chloro-2-(2,2,2-trifluoroethoxy)phenyl]-1,3-dihydro-3,5,6-trifluoro-2H-indol-2-one] | 200 to 203 | + (+ = 120-150%) | 
O=C1Nc2cc(C(F)(F)F)ccc2C1(F)c1cc(Cl)ccc1OCCF (racemic) [Example 14, (±)-3-[5-Chloro-2-(2-fluoroethoxy)phenyl]-1,3-dihydro-3-fluoro-6-(trifluoromethyl)-2H-indol-2-one] |  | + (+ = 120-150%) | 
O=C1Nc2cc(CF)ccc2C1(F)c1cc(Cl)ccc1OCC(F)(F)F (racemic) [Example 7, (±)-3-[5-Chloro-2-(2,2,2-trifluoroethoxy)phenyl]-1,3-dihydro-3-fluoro-6-(fluoromethyl)-2H-indol-2-one] | 150 to 151 |  | 
O=C1Nc2cc(C(F)(F)F)ccc2C1(F)c1cc(Cl)ccc1OCC(F)(F)F (racemic) [Example 2, (±)-3-[5-Chloro-2-[(2,2,2-trifluoroethoxy)phenyl]-1,3-dihydro-3-fluoro-6-(trifluoromethyl)-2H-indol-2-one] |  |  | KCNQ2 Current ([1]; at 10 μM): ++** (++ = >150%); decrease from control amplitude of SSS-stimulated trigeminal field response ([2]; 50 mg/kg i.v., anesthetized Long-Evans rats, solution in 100% polyethylene glycol 400): 86.7±1.67%; reduction of trigeminal field response compared with vehicle ([2]; doses 0.1, 1.0, 10.0, 30.0 and 50.0 mg/kg i.v., p<0.01 in all cases): Significant reductions compared with vehicle; reduction in the SSS-stimulated trigeminal field response ([2]; i.v., rats, overall ANOVA p<0.001): dose-dependent reduction
